This is an account of results in PubChem BioAssay (NCI).

Values joined by “and” are separate entries in the source; they are usually repeats but may differ in a detail not shown here. Identical values can stand only once.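 In this assay, cells in 96-well plates receive the compound at five concentrations for 48 hours. Endpoints are linearly interpolated between the surrounding concentrations. GI50: concentration for 50% inhibition of growth. TGI marks complete inhibition of growth.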

Assay in all cases: NCI tumour cell line growth inhibition, 48 h
The test system of assay [1] is SW-620 colon.
The test system of assay [2] is HCT-116 colon.
Assay [3] deals with RPMI-8226 leukemia.
The subject of assay [4] is SK-OV-3 ovarian.
For assay [5], the system named is OVCAR-5 ovarian.
The test system of assay [6] is EKVX NSCLC.
The test system of assay [7] is HOP-62 NSCLC.
Assay [8] concerns A549 NSCLC.
Assay [9] concerns DLD-1 colon.
In assay [10] the test system is COLO 205 colon.
Assay [11] relates to KM20L2 colon.

For `O=C1c2ccccc2C(=O)c2c1ccc1c2N=C(c2ccc(F)cc2)CC(c2ccc(Cl)c(Cl)c2)N1` (stereo not given), the TGI in assay [1] was 19 µM; in assay [2], 23.7 µM; in assay [3], 19.3 µM; in assay [4] it was 48.9 µM; in assay [5], 28 µM; in [6], 20.3 µM. The TGI in [7] was 58.2 µM; in [8], 47.6 µM; in assay [9], 31.8 µM; in assay [10] it was 33.4 µM; in assay [11] it was 30.8 µM.
As to `C[C@@H]1C[C@]2(C[C@@H](C)[C@H]3C(C[C@@]4(C)CCC[C@@H]5C6=C[C@H](CCC34C)OC6=CC(=O)OC5(C)C)O2)OC1=O` (stereo not given in full), the TGI in assay [1], in assay [3], in [4], in assay [5], in [6] and in [7] was above 51.5 µM throughout. The TGI in [8], in [9], in assay [10] and in assay [11] was above 51.5 µM each time.
As for `COC(=O)c1nc(-c2ccc3c(n2)C(=O)C(N)=C(OC)C3=O)c(N)c(-c2ccc(OC)c(OC)c2O)c1C`, the TGI in [1] worked out at 6.88 µM; in assay [2], 2.14 µM; in [3] it was 3.6 µM; in assay [4], 3.73 µM; in [6] it was 7.95 µM; in assay [7], 0.487 µM. The TGI in [8] amounted to 2.76 µM; in assay [9] it was 3.42 µM; in [10], 3.61 µM; in assay [11], 5.97 µM.
On to `CN(C)CCCNc1c2ccccc2nc2cccc([N+](=O)[O-])c12`, for which the TGI was 0.0132 µM and 0.0316 µM in [2]; 0.0921 µM and 0.0723 µM in assay [4]; 0.0214 µM and 0.0509 µM in assay [5]; 0.448 µM in assay [6]; 0.0121 µM and 0.0944 µM in assay [8]; 0.0398 µM in [11]. Further, the GI50 is 0.0204 µM in assay [4], 0.0197 µM in [5] and 0.0222 µM in [7].
`COc1cccc2c1C1(O)C2CCCC12OCCCO2` (stereo not given): the TGI in assay [1], in assay [2], in [3], in [4], in assay [5] and in assay [7] was above 100 µM in each case. The TGI in assay [8], in [9], in assay [10] and in [11] was above 100 µM throughout.
`COc1ccc(/C=C(\C(=C/c2ccc(OC)cc2)[N+](=O)[O-])[N+](=O)[O-])cc1`: the TGI in assay [1] is 7.87 µM; in assay [2], 24.8 µM; in assay [3], 13 µM; in assay [4], 32.4 µM; in [5], 35.4 µM; in assay [6], 29.8 µM. The TGI in assay [7] is 21.2 µM; in [8], above 61.3 µM; in assay [10] it was 21.6 µM.
In the case of `CCCn1c(=O)c2ccccc2[n+]2c(-c3ccc([N+](=O)[O-])cc3)csc12`, the TGI in assay [1] was above 100 µM; in assay [2], above 100 µM; in assay [3] it was 55.7 µM; in [4], above 100 µM; in [5], above 100 µM; in assay [6], above 100 µM. In addition, the TGI in assay [7] was 80.8 µM; in assay [8], above 100 µM; in [10], above 100 µM.
With `O=c1[nH]c2ccccc2nc1/C=C(\O)C(F)F`, the TGI in [1], in [2], in [3], in assay [4], in assay [5] and in [6] was above 100 µM in each case. Also, the TGI in assay [7], in assay [8] and in assay [10] was above 100 µM throughout.
As for `CC(C)(C)n1c(=O)n(C(=O)C(Cl)(Cl)Cl)n(C(=O)C(Cl)(Cl)Cl)c1=O`, the TGI in assay [1], in assay [2], in assay [3], in assay [4], in assay [5] and in assay [6] was above 100 µM each time. Also, the TGI in [7], in assay [8] and in [10] was above 100 µM each time.
As to `CCOC(=O)C1=C(C)C(C(=O)OC)/C(=C/c2cccc3cccnc23)C1=O` (stereo not given), the TGI in assay [1], in assay [2], in assay [3], in assay [4], in assay [5] and in assay [6] was above 10 µM throughout. Besides, the TGI in [7], in [8] and in assay [10] was above 10 µM each time.
With `CCc1nn(S(=O)(=O)c2ccc(C)cc2)c2c1CS(=O)(=O)CC2`, the TGI in assay [1], in assay [2], in [3], in assay [4], in [5] and in [6] was above 100 µM each time. Besides, the TGI in assay [7], in [8] and in assay [10] was above 100 µM throughout.
As to `CC(C)[C@H]1NC(=O)[C@H]2N=C(O[C@@H]2C)[C@@H]2CCCN2C(=O)[C@H](Cc2ccccc2)NC(=O)[C@@H]2CSC(=N2)[C@@H](Cc2ccccc2)NC(=O)[C@@H]2CSC1=N2`, the TGI in [1] was above 100 µM; in assay [2], above 100 µM; in [3] it was 94.9 µM; in assay [4], above 100 µM; in assay [5] it was above 100 µM; in assay [6], above 100 µM. Besides, the TGI in [7], in [8] and in [10] was above 100 µM in each case.
With `COc1ccc(-c2nc(-c3cc4ccccc4oc3=O)cs2)cc1`, the TGI in assay [1] was above 100 µM; in [2], above 100 µM; in [3], above 100 µM; in assay [4], 91.6 µM; in [5], above 100 µM; in assay [6], above 100 µM. In addition, the TGI in [7] is 96.4 µM; in [8] it was above 100 µM; in assay [10], above 100 µM.
As to `COc1ccc2c(c1)nc1n2C(N)=Nc2ccccc2S1`, the TGI in assay [1] was above 100 µM; in assay [2], above 100 µM; in assay [3] it was above 82.2 µM; in assay [4] it was above 100 µM; in [5], above 100 µM; in [6] it was above 100 µM. The TGI in assay [7], in [8] and in assay [10] was above 100 µM in each case.
Regarding `O=C(c1ccccc1)c1c(C(F)(F)F)n([O-])c2cc(Cl)c(Cl)cc2[n+]1=O`, the TGI worked out at 6.72 µM in [1]; 0.989 µM in assay [2]; 1.15 µM in assay [3]; 8.99 µM in [4]; 3.41 µM in [5]; 6.96 µM in assay [6]. Also, the TGI is 0.909 µM in assay [7], 4.19 µM in assay [8] and 18.8 µM in assay [10].
In the case of `Cc1ccc(NC(=S)Nc2c(C)n(C)n(-c3ccccc3)c2=O)cc1`, the TGI in [1], in assay [2], in [3], in assay [4], in assay [5] and in assay [6] was above 100 µM in each case. The TGI in assay [7], in assay [8] and in assay [10] was above 100 µM in each case.
For the compound `COC(=O)/C=C\C(C#N)(C#N)N=Cc1ccc(C)s1`, the TGI in assay [1] was 2.14 µM; in assay [2], 2.65 µM; in [3], above 32.5 µM; in assay [4] it was 28.2 µM; in [5], 15.9 µM; in [6], 15.3 µM. Also, the values for the TGI in assay [7], in [8] and in assay [10] were 28.5 µM, 33.6 µM and 2.93 µM, respectively.
For the compound `Cc1cn(CC2=NCCCN2)c(=O)[nH]c1=O`, the TGI in assay [1], in assay [2], in assay [3], in assay [4], in [5] and in [6] was above 100 µM throughout. Moreover, the TGI in assay [7], in assay [8] and in assay [10] was above 100 µM each time.
Consider `CC1CC[C@@]2(OC1)O[C@H]1C[C@H]3[C@@H]4CC[C@H]5C[C@@H](OC6OC(CO)C(OC7OC(CO)C(OC8OC(CO)C(O)C(OC9OC(C)C(OC%10OC(C)C(O)C(O)C%10O)C(O)C9O)C8OC8OCC(O)C(O)C8O)C(O)C7O)C(O)C6O)CC[C@]5(C)[C@H]4CC(=O)[C@]3(C)[C@H]1[C@@H]2C` (stereo not given in full), for which the TGI turned out to be 42 µM in assay [1]; 52.9 µM in assay [2]; 33.3 µM in [3]; 41.6 µM in [4]; 40.3 µM in assay [5]; 40.4 µM in [6]. The TGI came out at 45.5 µM in assay [7], 51.3 µM in [8] and 30.1 µM in assay [10].
On to `COc1ccc(/C=C2\CC3C4CC=C5C[C@@H](O)CC[C@]5(C)C4CC[C@]3(C)\C2=N\O)cc1OC` (stereo not given in full), for which the TGI in assay [1], in [2], in [3], in [4], in assay [5] and in assay [6] was above 100 µM throughout. The TGI in [7] was above 100 µM; in assay [8], above 100 µM; in assay [10], 67.1 µM.
